Target: T1, F508del (Homo sapiens, UniProt P13569, DEL508-508)
T1 construct: expressed in transfected cells
Test: Protocol 1: membrane potential optical assay (FLIPR III, voltage sensing dye), identification of potentiator compounds
Format: cell-based
Settings: Table 3, compounds of Table 1
How it was run: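 Gating potentiation is read as a membrane-potential fluorescence change (FLIPR III, voltage-sensing dye) after one forskolin addition under a Cl− gradient, with gluconate replacing chloride, pH 7.4. Cells are F508del-expressing NIH3T3 mouse fibroblasts held 24 h at 27 °C and exposed to compound before dye loading.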

T1 sequence (P13569 with tags, fused parts or gaps DEL508-508): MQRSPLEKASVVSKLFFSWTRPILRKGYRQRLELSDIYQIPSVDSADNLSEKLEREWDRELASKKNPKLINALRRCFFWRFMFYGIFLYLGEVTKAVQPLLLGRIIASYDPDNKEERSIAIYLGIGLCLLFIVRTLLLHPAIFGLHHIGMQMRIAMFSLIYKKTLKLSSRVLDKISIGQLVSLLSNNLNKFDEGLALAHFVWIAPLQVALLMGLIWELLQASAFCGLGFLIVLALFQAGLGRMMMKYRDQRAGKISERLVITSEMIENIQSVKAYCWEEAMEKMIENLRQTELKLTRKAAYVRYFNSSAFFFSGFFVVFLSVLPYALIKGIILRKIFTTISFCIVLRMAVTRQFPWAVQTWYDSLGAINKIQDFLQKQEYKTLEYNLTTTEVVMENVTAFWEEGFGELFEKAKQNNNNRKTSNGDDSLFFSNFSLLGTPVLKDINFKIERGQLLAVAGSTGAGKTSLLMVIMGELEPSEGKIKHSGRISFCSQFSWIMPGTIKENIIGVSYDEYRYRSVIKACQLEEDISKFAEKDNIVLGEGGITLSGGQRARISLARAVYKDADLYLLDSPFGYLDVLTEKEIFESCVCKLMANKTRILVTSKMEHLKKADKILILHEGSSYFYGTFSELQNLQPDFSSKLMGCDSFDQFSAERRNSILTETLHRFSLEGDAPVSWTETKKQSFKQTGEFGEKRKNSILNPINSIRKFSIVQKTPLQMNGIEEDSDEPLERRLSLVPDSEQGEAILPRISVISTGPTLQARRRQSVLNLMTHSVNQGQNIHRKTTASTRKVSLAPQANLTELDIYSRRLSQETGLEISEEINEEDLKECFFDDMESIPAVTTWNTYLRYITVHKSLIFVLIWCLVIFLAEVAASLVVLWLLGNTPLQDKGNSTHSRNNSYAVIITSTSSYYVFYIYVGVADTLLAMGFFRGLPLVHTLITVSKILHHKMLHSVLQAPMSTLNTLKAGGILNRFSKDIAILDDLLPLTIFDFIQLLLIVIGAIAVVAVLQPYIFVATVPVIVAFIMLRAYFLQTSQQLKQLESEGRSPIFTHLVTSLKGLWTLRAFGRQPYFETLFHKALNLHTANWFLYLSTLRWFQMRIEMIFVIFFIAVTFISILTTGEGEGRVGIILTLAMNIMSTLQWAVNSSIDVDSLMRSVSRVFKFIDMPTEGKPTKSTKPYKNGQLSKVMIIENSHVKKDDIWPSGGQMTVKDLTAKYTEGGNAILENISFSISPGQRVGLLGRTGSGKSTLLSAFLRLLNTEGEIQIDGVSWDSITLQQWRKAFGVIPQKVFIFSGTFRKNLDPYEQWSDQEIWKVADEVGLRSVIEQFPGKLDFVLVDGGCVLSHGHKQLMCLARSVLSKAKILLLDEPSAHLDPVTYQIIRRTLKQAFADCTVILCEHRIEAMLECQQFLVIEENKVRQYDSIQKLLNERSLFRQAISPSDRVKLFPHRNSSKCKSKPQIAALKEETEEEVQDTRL

CC(C)Oc1ccn(-c2ccc(C(=O)NS(=O)(=O)c3cccc(N)n3)c(N3C[C@@H](C)CC3(C)C)n2)n1 [Compound 1709, N-[(6-amino-2-pyridyl)sulfonyl]-6-(3-isopropoxypyrazol-1-yl)-2-[(4S)-2,2,4-trimethylpyrrolidin-1-yl]pyridine-3-carboxamide]
EC30: +++ (“+++” means <3 uM)

C[C@@H]1CN(c2nc([C@H]3CC[C@H](C(F)(F)F)CC3)ccc2C(=O)NS(=O)(=O)c2ccc[nH]c2=O)C(C)(C)C1 [Compound 1710, N-[(2-oxo-1H-pyridin-3-yl)sulfonyl]-6-[4-(trifluoromethyl)cyclohexyl]-2-[(4S)-2,2,4-trimethylpyrrolidin-1-yl]pyridine-3-carboxamide]
EC30: +++ (“+++” means <3 uM)

CCCN(C)c1cccc(S(=O)(=O)NC(=O)c2cccnc2N2CC(C)CC2(C)C)n1 (centres unmarked) [Compound 1711, N—[[6-[methyl(propyl)amino]-2-pyridyl]sulfonyl]-2-(2,2,4-trimethylpyrrolidin-1-yl)pyridine-3-carboxamide]
EC30: +++ (“+++” means <3 uM)

C[C@@H]1CN(c2nc(-c3ccc(O)cc3)ccc2C(=O)NS(=O)(=O)c2cccnc2N)C(C)(C)C1 [Compound 1712, N-[(2-amino-3-pyridyl)sulfonyl]-6-(4-hydroxyphenyl)-2-[(4S)-2,2,4-trimethylpyrrolidin-1-yl]pyridine-3-carboxamide]
EC30: +++ (“+++” means <3 uM)

Cc1cccc(-c2ccc(C(=O)NS(=O)(=O)c3cccnc3N)c(N3C[C@@H](C)CC3(C)C)n2)c1C [Compound 1713, N-[(2-amino-3-pyridyl)sulfonyl]-6-(2,3-dimethylphenyl)-2-[(4S)-2,2,4-trimethylpyrrolidin-1-yl]pyridine-3-carboxamide]
EC30: +++ (“+++” means <3 uM)

C[C@@H]1CN(c2nc(-c3cnc4[nH]ccc4c3)ccc2C(=O)NS(=O)(=O)c2cccnc2N)C(C)(C)C1 [Compound 1714, N-[(2-amino-3-pyridyl)sulfonyl]-6-(1H-pyrrolo[2,3-b]pyridin-5-yl)-2-[(4S)-2,2,4-trimethylpyrrolidin-1-yl]pyridine-3-carboxamide]
EC30: ++ (“++” means between 3 uM and 10 uM)

CCOCCOCCOc1ncc(-c2ccc(C(=O)NS(=O)(=O)c3cccc(N)n3)c(N3C[C@@H](C)CC3(C)C)n2)cc1C [Compound 1715, N-[(6-amino-2-pyridyl)sulfonyl]-6-[6-[2-(2-ethoxyethoxy)ethoxy]-5-methyl-3-pyridyl]-2-[(4S)-2,2,4-trimethylpyrrolidin-1-yl]pyridine-3-carboxamide]
EC30: +++ (“+++” means <3 uM)

C[C@@H]1CN(c2nc(-c3cc(F)cc(F)c3)ccc2C(=O)NS(=O)(=O)N2CC[C@H](N)C2)C(C)(C)C1 [Compound 1716, N-[(3S)-3-aminopyrrolidin-1-yl]sulfonyl-6-(3,5-difluorophenyl)-2-[(4S)-2,2,4-trimethylpyrrolidin-1-yl]pyridine-3-carboxamide]
EC30: ++ (“++” means between 3 uM and 10 uM)

COc1ccc(CN(C)c2cccc(S(=O)(=O)NC(=O)c3cccnc3N3CC(C)CC3(C)C)n2)cc1 (centres unmarked) [Compound 1717, N—[[6-[(4-methoxyphenyl)methyl-methyl-amino]-2-pyridyl]sulfonyl]-2-(2,2,4-trimethylpyrrolidin-1-yl)pyridine-3-carboxamide]
EC30: +++ (“+++” means <3 uM)

CC1CN(c2ncccc2C(=O)NS(=O)(=O)c2cccc(OC(C)(C)C)n2)C(C)(C)C1 (centres unmarked) [Compound 1718, N-[(6-tert-butoxy-2-pyridyl)sulfonyl]-2-(2,2,4-trimethylpyrrolidin-1-yl)pyridine-3-carboxamide]
EC30: +++ (“+++” means <3 uM)

COc1cc(C)cc(Oc2cccc(S(=O)(=O)NC(=O)c3cccnc3N3CC(C)CC3(C)C)n2)c1 (centres unmarked) [Compound 1719, N—[[6-(3-methoxy-5-methyl-phenoxy)-2-pyridyl]sulfonyl]-2-(2,2,4-trimethylpyrrolidin-1-yl)pyridine-3-carboxamide]
EC30: +++ (“+++” means <3 uM)

CC1CN(c2ncccc2C(=O)NS(=O)(=O)c2cccc(Oc3ccccc3C#N)n2)C(C)(C)C1 (centres unmarked) [Compound 1720, N—[[6-(2-cyanophenoxy)-2-pyridyl]sulfonyl]-2-(2,2,4-trimethylpyrrolidin-1-yl)pyridine-3-carboxamide]
EC30: +++ (“+++” means <3 uM)

CC1CN(c2ncc(-c3cc(Cl)cc(Cl)c3)cc2C(=O)NS(=O)(=O)c2cccc(N)n2)C(C)(C)C1 (centres unmarked) [Compound 1721, N-[(6-amino-2-pyridyl)sulfonyl]-5-(3,5-dichlorophenyl)-2-(2,2,4-trimethylpyrrolidin-1-yl)pyridine-3-carboxamide]
EC30: +++ (“+++” means <3 uM)

CC1CN(c2ncccc2C(=O)NS(=O)(=O)c2cccc(Nc3ccc(C(C)C)cc3)n2)C(C)(C)C1 (centres unmarked) [Compound 1722, N—[[6-(4-isopropylanilino)-2-pyridyl]sulfonyl]-2-(2,2,4-trimethylpyrrolidin-1-yl)pyridine-3-carboxamide]
EC30: +++ (“+++” means <3 uM)

CC(C)COc1cc(F)cc(-c2ccc(C(=O)NS(=O)(=O)c3cccc(N)n3)c(NCC3(CC(C)(C)O)CC3)n2)c1 [Compound 1723, N-[(6-amino-2-pyridyl)sulfonyl]-6-(3-fluoro-5-isobutoxy-phenyl)-2-[[1-(2-hydroxy-2-methyl-propyl)cyclopropyl]methylamino]pyridine-3-carboxamide]
EC30: +++ (“+++” means <3 uM)

CC(C)COc1cc(F)cc(-c2ccc(C(=O)NS(=O)(=O)c3cccc(N)n3)c(N3CC[C@H](C)[C@H](C)C3)n2)c1 [Compound 1724]
EC30: +++ (“+++” means <3 uM)

C[C@@H]1CN(c2nc(-c3ccccc3)ccc2C(=O)NS(=O)(=O)N2CC[C@H](N)C2)C(C)(C)C1 [Compound 1725, N-[(3S)-3-aminopyrrolidin-1-yl]sulfonyl-6-phenyl-2-[(4S)-2,2,4-trimethylpyrrolidin-1-yl]pyridine-3-carboxamide]
EC30: ++ (“++” means between 3 uM and 10 uM)

COc1ccc(/C=C/c2cnc(N3CC(C)CC3(C)C)c(C(=O)NS(=O)(=O)c3cccc(N)n3)c2)cc1 (centres unmarked) [Compound 1726, N-[(6-amino-2-pyridyl)sulfonyl]-5-[(E)-2-(4-methoxyphenyl)vinyl]-2-(2,2,4-trimethylpyrrolidin-1-yl)pyridine-3-carboxamide]
EC30: +++ (“+++” means <3 uM)

CCOc1ncc(-c2ccc(C(=O)NS(=O)(=O)c3cccc(N)n3)c(N3C[C@@H](C)CC3(C)C)n2)cc1C [Compound 1727, N-[(6-amino-2-pyridyl)sulfonyl]-6-(6-ethoxy-5-methyl-3-pyridyl)-2-[(4S)-2,2,4-trimethylpyrrolidin-1-yl]pyridine-3-carboxamide]
EC30: +++ (“+++” means <3 uM)

CC[C@H](C)Oc1ncc(-c2ccc(C(=O)NS(=O)(=O)c3cccc(N)n3)c(N3C[C@@H](C)CC3(C)C)n2)cc1C [Compound 1728, N-[(6-amino-2-pyridyl)sulfonyl]-6-[5-methyl-6-[(1 S)-1-methylpropoxy]-3-pyridyl]-2-[(4S)-2,2,4-trimethylpyrrolidin-1-yl]pyridine-3-carboxamide]
EC30: +++ (“+++” means <3 uM)

CC(Oc1nc(N2C[C@@H](C)CC2(C)C)c(C(=O)NS(=O)(=O)c2cccc(N)n2)cc1F)C1CCCCC1 (stereo partly drawn) [Compound 1730, N-[(6-amino-2-pyridyl)sulfonyl]-6-(1-cyclohexylethoxy)-5-fluoro-2-[(4S)-2,2,4-trimethylpyrrolidin-1-yl]pyridine-3-carboxamide]
EC30: +++ (“+++” means <3 uM)

Cc1ccc(-c2ccc(C(=O)NS(=O)(=O)c3cccnc3N)c(N3C[C@@H](C)CC3(C)C)n2)c(O)c1 [Compound 1731, N-[(2-amino-3-pyridyl)sulfonyl]-6-(2-hydroxy-4-methyl-phenyl)-2-[(4S)-2,2,4-trimethylpyrrolidin-1-yl]pyridine-3-carboxamide]
EC30: +++ (“+++” means <3 uM)

CC1CN(c2ncccc2C(=O)NS(=O)(=O)c2cccc(N3CCN(C4CCCC4)CC3)n2)C(C)(C)C1 (centres unmarked) [Compound 1733, N—[[6-(4-cyclopentylpiperazin-1-yl)-2-pyridyl]sulfonyl]-2-(2,2,4-trimethylpyrrolidin-1-yl)pyridine-3-carboxamide]
EC30: ++ (“++” means between 3 uM and 10 uM)

CC1CN(c2ncccc2C(=O)NS(=O)(=O)c2cccc(OCC3CCNC3)n2)C(C)(C)C1 (centres unmarked) [Compound 1734, N—[[6-(pyrrolidin-3-ylmethoxy)-2-pyridyl]sulfonyl]-2-(2,2,4-trimethylpyrrolidin-1-yl)pyridine-3-carboxamide]
EC30: +++ (“+++” means <3 uM)

COc1ccccc1-c1cnc(N2CC(C)CC2(C)C)c(C(=O)NS(=O)(=O)c2cccc(N)n2)c1 (centres unmarked) [Compound 1735, N-[(6-amino-2-pyridyl)sulfonyl]-5-(2-methoxyphenyl)-2-(2,2,4-trimethylpyrrolidin-1-yl)pyridine-3-carboxamide]
EC30: +++ (“+++” means <3 uM)

Cc1ccc(C)c(-c2ccc(C(=O)NS(=O)(=O)N3CC[C@H](N)C3)c(N3C[C@@H](C)CC3(C)C)n2)c1 [Compound 1736, N-[(3S)-3-aminopyrrolidin-1-yl]sulfonyl-6-(2,5-dimethylphenyl)-2-[(4S)-2,2,4-trimethylpyrrolidin-1-yl]pyridine-3-carboxamide]
EC30: ++ (“++” means between 3 uM and 10 uM)

CC(C)COc1cc(F)cc(-c2ccc(C(=O)NS(=O)(=O)c3cccc(N)n3)c(N3C[C@H](C)CC34CCC4)n2)c1 [Compound 1737]
EC30: +++ (“+++” means <3 uM)

C[C@@H]1CN(c2nc(-c3cccc(CO)c3)ccc2C(=O)NS(=O)(=O)c2cccnc2N)C(C)(C)C1 [Compound 1738, N-[(2-amino-3-pyridyl)sulfonyl]-6-[3-(hydroxymethyl)phenyl]-2-[(4S)-2,2,4-trimethylpyrrolidin-1-yl]pyridine-3-carboxamide]
EC30: +++ (“+++” means <3 uM)

CCN(CC)c1cc(-c2ccc(C(=O)NS(=O)(=O)c3cccc(N)n3)c(N3C[C@@H](C)CC3(C)C)n2)cc(C)n1 [Compound 1739, N-[(6-amino-2-pyridyl)sulfonyl]-6-[2-(diethylamino)-6-methyl-4-pyridyl]-2-[(4S)-2,2,4-trimethylpyrrolidin-1-yl]pyridine-3-carboxamide]
EC30: +++ (“+++” means <3 uM)

— patent publication US10758534B2 (Vertex Pharmaceuticals Incorporated, priority 2014, dated 2020)
